Laboratory results from paper PMC11990383, “Structure Determination of Tegoprazan((S)-4-((5,7-difluorochroman-4-yl)oxy)-N,N,2-trimethyl-1H-benzo[d]imidazole-6-formamide) Polymorphs A and B by Laboratory X-Ray Powder Diffraction” (Molecules, 2025).
Converted amounts (≈) assume the structure as drawn. Read-outs that look alike come from different tables or passages of the source.

Key:
[1] = Equilibrium solubility in water, potentiometric (pH-metric) CheqSol method; type: physicochemical; conditions: for solubility: thermodynamic from solid, read-out: equilibrium concentration (solubility, S)
Experimental: Solubility (S) measurements were conducted in water using the CheqSol system at five temperatures: 15 °C, 25 °C, 35 °C, 45 °C, and 55 °C. However, due to the hydrolytic instability of Tegoprazan at elevated temperatures and the pH-dependent nature of the CheqSol assay, reliable measurements could only be obtained at 15 °C and 25 °C. Based on the equilibrium solubility values at these two temperatures, the enthalpy of solution (ΔHsol) was estimated for each polymorph using van’t Hoff plots of ln(S) versus 1/T.
Solubility measurements were performed using the potentiometric (pH-metric) method with the CheqSol system (T3, Sirius Analytical Instruments Ltd., Portsmouth, UK). Unlike pKa determinations, solubility assays require relatively high sample concentrations to ensure saturation across a broad pH range (typically, pH 2 to 12). In this method, the solution is intentionally brought into a supersaturated state to establish “crossing points,” from which the intrinsic (equilibrium) solubility is calculated based on the concentration of the neutral species predominating at specific pH levels. The high initial concentration of the sample promotes supersaturation, leading to precipitation at pH values corresponding to the compound’s pKa. This onset of precipitation reflects the kinetic solubility, which can be characterized by various physicochemical parameters, including the pKa value, saturated pH, sample concentration, temperature, and crystallinity. This study aimed to investigate the temperature dependence of solubility for Polymorphs A and B. Measurements were conducted at five temperatures: 15 °C, 25 °C, 35 °C, 45 °C, and 55 °C.

[2] = Stability of polymorphs under accelerated conditions, followed by DSC and XRD; type: physicochemical; conditions: 40 ± 2 °C, relative humidity 75 ± 5 %, 8-week period; changes seen in the eighth week
Experimental: As a case in point, the stability of the two Tegoprazan polymorphs was evaluated under accelerated conditions (temperature: 40 ± 2 °C, relative humidity: 75 ± 5 HR%) over an 8-week period, with observations for any significant changes conducted using DSC (Differential Scanning Calorimetry) and XRD (X-ray diffraction). […] Therefore, it is essential to elucidate the details of this phenomenon. For quantitative phase analysis and similar studies, knowledge of the crystal structure is crucial. However, the crystal structures of Polymorphs A and B remain unresolved. In response to this need, we explored a practical approach to crystal structure analysis by utilizing readily available powder samples, laboratory-scale XRD instruments, and cost-efficient Rietveld refinement software specifically EXPO2014 (expo version 1.22.11). The known method of SDPD (Structure Determination from Powder Diffraction) was considered as one potential solution to address these challenges. While X-ray diffraction often utilizes synchrotron radiation or other advanced accelerator-based facilities, the crystal structures of Tegoprazan Polymorphs A and B were analyzed using laboratory-based X-ray diffraction (XRD) equipment and powdered samples. This approach was chosen for the following reasons: […]

## Cc1nc2c(OC3CCOc4cc(F)cc(F)c43)cc(C(=O)N(C)C)cc2[nH]1 [Polymorph A, (S)-4-((5,7-difluorochroman-4-yl)oxy)-N,N,2-trimethyl-1H-benzo[d]imidazole-6-formamide]
[1]; 15 °C, 15 °C
  solubility: 1250 µM (≈ 483 µg/mL)
[1]; 25 °C, 25 °C
  solubility: 1440 µM (≈ 557 µg/mL)
[2]
  solid-state stability (changes by DSC and XRD): No changes

## Cc1nc2c(OC3CCOc4cc(F)cc(F)c43)cc(C(=O)N(C)C)cc2[nH]1 [Polymorph B, (S)-4-((5,7-difluorochroman-4-yl)oxy)-N,N,2-trimethyl-1H-benzo[d]imidazole-6-formamide]
[1]; 15 °C
  equilibrium concentration (solubility, S): 1476 µM
[1]; 25 °C
  equilibrium concentration (solubility, S): 2118 µM
[2]
  solid-state stability (changes by DSC and XRD): phase transition to Polymorph A
